# Assay results: patent US11390617B2, “Methods of treating non-Hodgkin lymphoma using 2-(2,6-dioxopiperidin-3-yl)-4-((2-fluoro-4-((3-morpholinoazetidin-1-yl)methyl)benzyl)amino)isoindoline-1,3-dione” (Celgene Corporation, priority 2019, dated 2022)
# Legend:
# Experiment in all cases: Viability/apoptosis flow cytometry assay, DLBCL cell lines with acquired resistance to doxorubicin and parental lines
# Type in all cases: cell-based
# WSU-DLCL2 DoxoR = system: WSU-DLCL2 DoxoR
# Description: (§1) The following exemplary anti-proliferative assay uses exemplary DLBCL cell lines with acquired resistance to doxorubicin (Table 7). The in vitro growth inhibitory activity of Compound described herein was evaluated using a 384-well flow cytometry assay. The activity of Compound 1 was also evaluated in cell lines with acquired resistance to doxorubicin (one of the curative agents in the DLBCL standard of care regimen R-CHOP [rituximab, cyclophosphamide, doxorubicin, vincristine, and prednisone]) (Table 7).
# (§2) The cell lines in Table 7 were plated in 96-well flat bottom plates and assessed with increasing concentrations of compound ranging from 0.0015 to 10 μM or dimethyl sulfoxide (DMSO) control. The final concentration of DMSO was 0.1% (v/v). Following the addition of Compound 1 or DMSO and incubation for 120 hours, cell number and cell death were analyzed by flow cytometry (Attune®, Thermo Fisher) using Annexin V and the vital dye, 7-AAD. Phosphatidylserine translocates from the inner layer to the outer layer of the cell membrane early in apoptosis and Annexin V binds to the exposed phosphatidylserine found on the surface of an apoptotic cell. The dye 7-AAD is excluded by intact live cells and only stains cells that have died as a result of apoptosis or necrosis.
# (§3) Flow cytometry data analysis was then performed using the Flow Jo_v10 software to determine the number of viable cells (Annexin V and 7-AAD double negative staining cells) and percentage of apoptotic cells (Annexin V positive cells) for each condition. The live cell count for every concentration was normalized to the DMSO control (considered as 100%) to calculate the percentage of viable cells remaining after treatment and graphed using GraphPad Prism 7.03. The IC50 (50% inhibitory concentration) and Emax (maximum efficacy eliminating tumor cells achieved) values were then calculated by performing nonlinear regression curve fitting using log(inhibitor) vs. normalized response—variable slope analysis on GraphPad Prism 7.03. Area under the curve (AUC) was calculated by performing area under curve analysis on GraphPad Prism 7.03. Similarly, for apoptosis analysis, the percentage of apoptosis combining both “early” (Annexin V positive and 7-AAD negative) and “late” apoptosis (Annexin V and 7-AAD positive) cell gates relative to DMSO was graphed using GraphPad Prism 7.03. The AUC, EC50 (concentration of Compound 1 that produces half-maximal apoptosis response) and Ymax (maximal percentage of apoptosis achieved) values from apoptosis curves were calculated by performing area under curve analysis and nonlinear regression curve fitting using log(agonist) vs. normalized response—Variable slope analysis on GraphPad Prism 7.03.
# (§4) In Table 8, dose-response proliferation curves for the cell lines with acquired resistance to doxorubicin and non-linear curve-fit regression were used to determine IC50, AUC, and Emax for % viable cells (Emax for viability varies between 100 at low doses and 0 at high doses, which corresponds to inhibition of all viable cells), and dose-response apoptosis curves were used to determine the EC50, AUC, and Ymax for % apoptosis (Ymax for apoptosis varies from 0 at low doses and 100 at higher doses which corresponds to death of all cells). Tumor cells were exposed to serial dilutions (0.00015 to 10 μM) of Compound 1 or dimethyl sulfoxide (DMSO) control for 5 days. Viability and apoptosis for all cell lines was determined by Annexin V/7-aminoactinomycin D (7-AAD) flow cytometry.
# WSU-DLCL2 Parental = system: WSU-DLCL2 Parental
# Description: as §1, §2, §3, §4
# U2932 Parental = conditions: 120 hours
# Description: as §1, §2, §3, §4
# SUDHL4 Parental = system: SUDHL4 Parental
# Description: as §1, §2, §3, §4
# Oci-Ly10 Parental = conditions: 120 hours
# Description: as §1, §2, §3, §4
# Oci-Ly10 DoxoR = conditions: 120 hours
# Description: as §1, §2, §3, §4
# U2932 DoxoR = conditions: 120 hours
# Description: as §1, §2, §3, §4
# SUDHL4 DoxoR = system: SUDHL4 DoxoR
# Description: as §1, §2, §3, §4
# [1] = Homo sapiens, WSUDLCL2, 120 hours
# [2] = Homo sapiens, WSUDLCL2, 120 hours, read-out: IC50 (% Viable Cells)
# [3] = Homo sapiens, read-out: IC50 (% Viable Cells)
# [4] = Homo sapiens, SU-DHL-4, 120 hours
compound,measurement,setting,value
"O=C1CC[C@H](N2C(=O)c3cccc(NCc4ccc(CN5CC(N6CCOCC6)C5)cc4F)c3C2=O)C(=O)N1 [Compound 1, (S)-2-(2,6-dioxopiperidin-3-yl)-4-((2-fluoro-4-((3-morpholinoazetidin-1-yl)methyl)benzyl)amino)isoindoline-1,3-dione]",AUC (% Viable Cells),WSU-DLCL2 DoxoR; 120 hours,195.9
same,AUC (Apoptosis),WSU-DLCL2 DoxoR; 120 hours,74.4
same,Emax (% Viable Cells),WSU-DLCL2 DoxoR; 120 hours,8.4%
same,Ymax (Apoptosis),WSU-DLCL2 DoxoR; 120 hours,57%
same,EC50,WSU-DLCL2 DoxoR; [1],400 nM
same,IC50,WSU-DLCL2 DoxoR; [2],70 nM
same,AUC (% Viable Cells),WSU-DLCL2 Parental; 120 hours,166.7
same,AUC (Apoptosis),WSU-DLCL2 Parental; 120 hours,51
same,Emax (% Viable Cells),WSU-DLCL2 Parental; 120 hours,28%
same,Ymax (Apoptosis),WSU-DLCL2 Parental; 120 hours,29.5%
same,EC50,WSU-DLCL2 Parental; [1],320 nM
same,IC50,WSU-DLCL2 Parental; [2],10 nM
same,AUC (% Viable Cells),U2932 Parental,193
same,AUC (Apoptosis),U2932 Parental,45.5
same,Emax (% Viable Cells),U2932 Parental,28.4%
same,Ymax (Apoptosis),U2932 Parental,30%
same,EC50,U2932 Parental; Homo sapiens,440 nM
same,IC50,U2932 Parental; [3],30 nM
same,AUC (% Viable Cells),SUDHL4 Parental; 120 hours,335
same,AUC (Apoptosis),SUDHL4 Parental; 120 hours,6
same,Emax (% Viable Cells),SUDHL4 Parental; 120 hours,75%
same,Ymax (Apoptosis),SUDHL4 Parental; 120 hours,3.7%
same,EC50,SUDHL4 Parental; [4],200 nM
same,AUC (% Viable Cells),Oci-Ly10 Parental,285.5
same,AUC (Apoptosis),Oci-Ly10 Parental,13
same,Emax (% Viable Cells),Oci-Ly10 Parental,52%
same,Ymax (Apoptosis),Oci-Ly10 Parental,10.12%
same,EC50,Oci-Ly10 Parental; Homo sapiens,810 nM
same,IC50,Oci-Ly10 Parental; [3],200 nM
same,AUC (% Viable Cells),Oci-Ly10 DoxoR,211.8
same,AUC (Apoptosis),Oci-Ly10 DoxoR,27
same,Emax (% Viable Cells),Oci-Ly10 DoxoR,25%
same,Ymax (Apoptosis),Oci-Ly10 DoxoR,19.48%
same,EC50,Oci-Ly10 DoxoR; Homo sapiens,640 nM
same,IC50,Oci-Ly10 DoxoR; [3],90 nM
same,AUC (% Viable Cells),U2932 DoxoR,256
same,AUC (Apoptosis),U2932 DoxoR,15.7
same,Emax (% Viable Cells),U2932 DoxoR,27.7%
same,Ymax (Apoptosis),U2932 DoxoR,16%
same,EC50,U2932 DoxoR; Homo sapiens,1120 nM
same,IC50,U2932 DoxoR; [3],250 nM
same,AUC (% Viable Cells),SUDHL4 DoxoR; 120 hours,182.4
same,AUC (Apoptosis),SUDHL4 DoxoR; 120 hours,84
same,Emax (% Viable Cells),SUDHL4 DoxoR; 120 hours,7.5%
same,Ymax (Apoptosis),SUDHL4 DoxoR; 120 hours,63.5%
same,EC50,SUDHL4 DoxoR; [4],400 nM
same,IC50,"SUDHL4 DoxoR; Homo sapiens, SU-DHL-4, 120 hours, read-out: IC50 (% Viable Cells)",72 nM
